The text below walks through data of patent publication US8227491B2, “5-(3,4-dichloro-phenyl)-N-(2-hydroxy-cyclohexyl)-6-(2,2,2-trifluoro-ethoxy)-nicotinamide and salts thereof” (Hoffmann-La Roche Inc., priority 2009, dated 2012).

One assay concerns HDL cholesterol levels. In words: Effects on plasma lipid levels in hamsters. The assay is classed as in vivo. The conditions noted are these: male hamsters, 30 mg/kg p.o. once daily for five days, blood 2 hours after final treatment, 4 hour-fasted. As to the method:
Efficacy of compounds in modulating plasma lipid levels was determined in hamsters after 5 days of daily administration of compounds. Male hamsters of 6-8 weeks of age were used in the studies. After one week of acclimation, blood samples were collected from 4 hour-fasted animals for plasma lipid determination. Animals were then assigned to treatment groups based on HDL-cholesterol levels. Compounds were administered by gavage, once daily for five days. Control animals received vehicle alone. Blood was collected on day five from 4 hour-fasted hamsters, 2 hours after a final treatment, for plasma lipid analysis. Total cholesterol, HDL-cholesterol, LDL-cholesterol, and triglycerides were determined using colorimetric enzymatic assays (Roche Diagnostic GmbH, Mannheim, Germany). HDL-cholesterol was also determined after selective precipitation of HDL from plasma by standard procedures.

In assay [1] the target is T1, human cannabis CB2 receptor (Homo sapiens, UniProt P34972).
T1 construct: expressed in transfected cells; host or cells: human embryonic kidney (HEK) cells, Semliki Forest Virus system, membrane preparations
Kind of assay: CB2 receptor affinity, [3H]-CP-55,940 radioligand binding on HEK cell membranes. The conditions noted are these: Ki calculated from IC50 (Cheng-Prusoff). As to the method:
(§1) The affinity of the compounds of the invention for cannabinoid CB2 receptors was determined using membrane preparations of human embryonic kidney (HEK) cells in which the human cannabis CB2 receptor is transiently transfected using the Semliki Forest Virus system in conjunction with [3H]-CP-55,940 as radioligand. After incubation of freshly prepared cell membrane preparation with the [3H]-ligand, with or without addition of compounds of the invention, separation of bound and free ligand was performed by filtration over glass fiber filters. Radioactivity on the filter was measured by scintillation counting.
(§2) Ki values were calculated from the IC50 using the Cheng-Prusoff equation.

Assay [2] deals with T2, human cannabis CB1 receptor (Homo sapiens, UniProt P21554).
T2 construct: expressed in transfected cells; host or cells: human embryonic kidney (HEK) cells, Semliki Forest Virus system, membrane preparations
Kind of assay: CB1 receptor affinity, [3H]-CP-55,940 radioligand binding on HEK cell membranes. The conditions noted are these: Ki calculated from IC50 (Cheng-Prusoff). As to the method:
as §1, with “cannabinoid” for “cannabinoid CB2”, “CB1” for “CB2”
as §2

T1 sequence (P34972 whole entry): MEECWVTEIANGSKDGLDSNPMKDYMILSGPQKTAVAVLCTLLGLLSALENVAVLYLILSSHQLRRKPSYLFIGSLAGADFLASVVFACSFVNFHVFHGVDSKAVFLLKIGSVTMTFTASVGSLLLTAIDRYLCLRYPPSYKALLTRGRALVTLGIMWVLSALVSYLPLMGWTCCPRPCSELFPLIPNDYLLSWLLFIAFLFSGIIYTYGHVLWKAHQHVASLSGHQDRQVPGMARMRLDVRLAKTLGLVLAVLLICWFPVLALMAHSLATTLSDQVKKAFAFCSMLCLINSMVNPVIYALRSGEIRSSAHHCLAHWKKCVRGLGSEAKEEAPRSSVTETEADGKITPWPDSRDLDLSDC
T2 sequence (P21554 whole entry): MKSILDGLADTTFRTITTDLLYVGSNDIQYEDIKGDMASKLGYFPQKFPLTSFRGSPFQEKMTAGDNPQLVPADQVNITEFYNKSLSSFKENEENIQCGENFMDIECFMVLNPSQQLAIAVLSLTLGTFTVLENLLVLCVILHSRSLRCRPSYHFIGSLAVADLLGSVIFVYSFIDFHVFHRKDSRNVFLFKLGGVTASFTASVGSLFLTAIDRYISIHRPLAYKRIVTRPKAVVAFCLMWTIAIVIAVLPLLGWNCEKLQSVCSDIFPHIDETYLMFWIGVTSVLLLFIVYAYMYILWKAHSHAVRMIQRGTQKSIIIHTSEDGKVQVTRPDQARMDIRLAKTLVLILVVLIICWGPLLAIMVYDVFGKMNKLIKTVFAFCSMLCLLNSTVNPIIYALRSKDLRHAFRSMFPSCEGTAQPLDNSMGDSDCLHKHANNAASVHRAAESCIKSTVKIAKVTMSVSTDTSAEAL

For orientation: Ki means a measure of affinity in units of concentration, obtained from inhibition or displacement. Take `O=C(N[C@H]1CCCC[C@H]1O)c1cnc(OCC(F)(F)F)c(-c2ccc(Cl)c(Cl)c2)c1` [5-(3,4-Dichloro-phenyl)-N-((1S,2R)-2-hydroxy-cyclohexyl)-6-(2,2,2-trifluoro-ethoxy)-nicotinamide]: the “HDL Cholesterol levels [as % compared to control] @ 30 mg/kg p.o. of compound” value in the assay on HDL cholesterol levels was “+121.9 ± 21.0%”. Also, the inhibitory constant (Ki) in assay [1] and in assay [2] was > 10 µM each time.

For the compound `O=C(N[C@@H]1CCCC[C@H]1O)c1cnc(OCC(F)(F)F)c(-c2ccc(Cl)c(Cl)c2)c1` [5-(3,4-dichloro-phenyl)-N-((1R,2R)-2-hydroxy-cyclohexyl)-6-(2,2,2-trifluoro-ethoxy)-nicotinamide], the “HDL Cholesterol levels [as % compared to control] @ 30 mg/kg p.o. of compound” value in the assay with HDL cholesterol levels is “+77.9 ± 11.1%”. Also, the figures for the inhibition constant (Ki) in assay [1] and in assay [2] were > 10 µM and 1.3 µM, respectively.

As for `O=C(N[C@@H]1CCCC[C@H]1O)c1cnc(OCC(F)(F)F)c(-c2ccc(Cl)cc2)c1` [5-(4-Chloro-phenyl)-N-((1R,2R)-2-hydroxy-cyclohexyl)-6-(2,2,2-trifluoro-ethoxy)-nicotinamide, reference compound], in the assay on HDL cholesterol levels, the “HDL Cholesterol levels [as % compared to control] @ 30 mg/kg p.o. of compound” value was “+103.8 ± 14.7%”. In addition, the inhibition constant Ki was > 10 µM in assay [1] and 0.028 µM in assay [2].
